The source of these data is patent publication US10703756B2, “Pyrrolo[2,3-D]pyrimidinyl, pyrrolo[2,3-B]pyrazinyl, pyrrolo[2,3-B]pyridinyl acrylamides and epoxides thereof” (Pfizer Inc., priority 2015, dated 2020).

Like-named read-outs stand apart in the source and are kept apart here.

Assay [1] concerns the target T1, JAK3 enzyme (Homo sapiens, UniProt P52333).
T1 sequence (P52333 1-1124): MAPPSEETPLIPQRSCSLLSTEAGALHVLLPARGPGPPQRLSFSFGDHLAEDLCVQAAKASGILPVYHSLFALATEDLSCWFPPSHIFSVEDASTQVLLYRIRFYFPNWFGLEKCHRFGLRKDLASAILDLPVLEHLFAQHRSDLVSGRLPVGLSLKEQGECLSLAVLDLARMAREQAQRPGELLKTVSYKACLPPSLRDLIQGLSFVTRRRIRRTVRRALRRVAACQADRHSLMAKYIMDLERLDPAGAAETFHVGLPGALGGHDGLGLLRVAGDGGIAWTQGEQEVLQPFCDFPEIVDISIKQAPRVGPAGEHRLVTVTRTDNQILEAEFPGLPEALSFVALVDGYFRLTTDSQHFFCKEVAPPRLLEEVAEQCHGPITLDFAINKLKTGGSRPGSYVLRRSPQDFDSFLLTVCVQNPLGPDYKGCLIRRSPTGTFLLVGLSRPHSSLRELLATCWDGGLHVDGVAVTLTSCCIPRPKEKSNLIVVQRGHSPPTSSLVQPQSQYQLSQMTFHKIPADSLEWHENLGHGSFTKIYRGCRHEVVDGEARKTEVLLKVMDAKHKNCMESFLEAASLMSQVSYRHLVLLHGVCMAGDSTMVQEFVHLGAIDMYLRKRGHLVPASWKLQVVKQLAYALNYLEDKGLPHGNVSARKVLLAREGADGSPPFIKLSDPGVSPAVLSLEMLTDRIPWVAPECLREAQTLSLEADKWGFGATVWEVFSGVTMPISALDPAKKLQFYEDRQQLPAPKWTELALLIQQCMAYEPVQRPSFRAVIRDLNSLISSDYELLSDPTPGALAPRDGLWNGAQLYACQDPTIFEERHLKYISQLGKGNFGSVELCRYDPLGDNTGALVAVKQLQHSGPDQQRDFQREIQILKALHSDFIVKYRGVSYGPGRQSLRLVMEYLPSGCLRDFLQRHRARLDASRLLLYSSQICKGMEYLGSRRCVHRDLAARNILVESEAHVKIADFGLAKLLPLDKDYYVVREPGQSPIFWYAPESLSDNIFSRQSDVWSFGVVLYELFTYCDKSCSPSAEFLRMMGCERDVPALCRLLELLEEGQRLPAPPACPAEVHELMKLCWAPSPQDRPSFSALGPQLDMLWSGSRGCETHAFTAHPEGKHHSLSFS
Description: JAK Caliper Enzyme Assay at 4 μM ATP. The class given is biochemical. In outline: (§1)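 Kinase activity is measured by separating phosphorylated from unphosphorylated peptide on a microfluidic chip. Per enzyme batch, protein concentration and incubation time are optimized to give 20%-30% substrate turnover.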

Assay [2] deals with IL-15 induced P-STAT5 in human PBMC. Description: PBMC IL-15 Induced P-STAT5. The class given is cell-based. The procedure:
PBMC IL-15 Induced P-STAT5
Test compounds were serially diluted in DMSO, with further dilution of the compounds in RPMI 1640 medium (Invitrogen #72400) supplemented with 10 mM HEPES, pH 7.4, 1 mM sodium pyruvate, and Penicillin/Streptomycin (by adding 5 μL compound/DMSO in 120 μL Dulbecco's Phosphate-Buffered Saline (D-PBS, 1×), [DMSO]=4%, and mixing the solution by repeated pipetting, 6×). IL-15 was diluted to the concentration at 820 ng/mL in RPMI 1640 medium.
Frozen human PBMC (200-250 million cells/vial) was thawed at 37° C. The cells were transferred to 10 mL warm medium in a 50-mL conical tube, and centrifuged at 1,200 RPM at room temperature for 5 min. The supernatant was aspirated. Cells were suspended in 3 mL warm human plasma and incubated at 37° C. in a tissue culture incubator for 1.5 to 2 h. After adding 47 ml D-PBS (37° C.) to PBMC/FBS suspension, centrifuging at 1,200 RPM at room temperature for 5 min, and aspirating the supernatant, the cells were resuspended in 20 mL warm RPMI medium. Ninety μL of cell suspension were pipetted per well in a 96-well, deep-well, V-bottom plate, and the plate was incubated at 37° C. for 30 min. Five μL of compound were transferred to each well (final 0.2% DMSO), vortex gently and incubate at 37° C. for 15 min; 5 μL 4% DMSO/PBS were added to the control wells. After adding 5 μL 820 ng/mL of human IL-15 (final 41 ng/mL) to each well (5 μL PBS to the control wells), vortexing gently and incubating at 37° C. for 15 min, followed by 0.3 mL 1% paraformaldehyde/PBS (37° C.) to each well, and incubating the plate at room temperature for 15 min, the plates were centrifuged at 1,200 RPM (Beckman GS-6R or Sorvall Legend) at room temperature for 5 min, and the supernatant was aspirated using a 8-channel or 12-channel manifold. After adding 0.8 mL staining buffer per well, the plates were centrifuged at 1,200 RPM (Beckman GS-6R or Sorvall Legend) at room temperature for 5 min, and again the supernatant was aspirated using a 8-channel or 12-channel manifold. The plate was vortexed, and 0.35 mL 90% methanol/10% H2O (−20° C.) was added per well, and the plate incubated on ice for 20 min. After again adding 0.8 mL staining buffer per well, the plates were centrifuged at 1,200 RPM (Beckman GS-6R or Sorvall Legend) at room temperature for 5 min, and again the supernatant was aspirated using a 8-channel or 12-channel manifold, and then 0.8 mL Staining buffer was added per well. After once again adding 0.8 mL staining buffer per well, the plates were centrifuged at 1,200 RPM (Beckman GS-6R or Sorvall Legend) at room temperature for 5 min, and again the supernatant was aspirated using a 8-channel or 12-channel manifold. Then the plate was vortexed, and 250 μL/well of Alexa Fluor® 647 conjugated anti-STAT5 antibody ([…]; […]) was added, and the plate was incubated at 4° C. overnight in the dark. Samples of 250 μL/well were transferred to a 96-well U-bottom plate, and the FACS analysis was performed gating on total lymphocytes. Samples were analyzed using a BD Calibur™ or BD FACSCanto™ flow cytometer equipped with the BD High Throughput Sampler.

Assay [3] concerns the target T1, JAK3 enzyme. Description: JAK Caliper Enzyme Assay at 1 mM ATP. The class given is biochemical. In outline: as §1
Where [4] appears, read: human PBMC, IL-15 final 41 ng/mL, read-out: PBMC IL15_pSTAT5_IC50.

Turning to `C=CC(=O)N1CCN(c2cnc3[nH]cc(C(=O)N[C@@H](C)C(=O)OC)c3n2)CC1(C)C` [Example 158, Methyl N-{[2-(4-acryloyl-3,3-dimethylpiperazin-1-yl)-5H-pyrrolo[2,3-b]pyrazin-7-yl]carbonyl}-L-alaninate], the IC50 was found to be 0.00307 µM on JAK3 enzyme [1], 888 nM in assay [2] (setting [4]) and 0.365 µM at JAK3 enzyme [3].

Consider `C[C@H]1CC[C@@H](Nc2ncnc3[nH]ccc23)CN1C(=O)C1CO1` (mixture of isomers) [Example 132, Racemic-[(2S,5R)-2-methyl-5-(7H-pyrrolo[2,3-d]pyrimidin-4-ylamino)piperidin-1-yl](oxiran-2-yl)methanone], for which the IC50 on JAK3 enzyme [1] was determined as 0.00167 µM; in assay [2] (setting [4]) it was 524 nM; on JAK3 enzyme [3], 0.255 µM.

Consider `C=CC(=O)N1CCC(Nc2cnc3[nH]cc(C(=O)NC4CCC4)c3n2)CC1C` (racemic) [Example 320, Racemic-2-[(1-acryloyl-2-methylpiperidin-4-yl)amino]-N-cyclobutyl-5H-pyrrolo[2,3-b]pyrazine-7-carboxamide], for which the figures for the IC50 (on JAK3 enzyme [1]; in assay [2] (setting [4]); on JAK3 enzyme [3]) were 0.00216 µM, 1250 nM and 0.182 µM, respectively.

For `C=CC(=O)N1CC[C@@H](Oc2cnc3[nH]cc(C(=O)NCC)c3n2)[C@H](C)C1` (racemic) [Example 46, Trans-racemic-2-{[1-acryloyl-3-methylpiperidin-4-yl]oxy}-N-ethyl-5H-pyrrolo[2,3-b]pyrazine-7-carboxamide], the IC50 against JAK3 enzyme [1] worked out at 0.00338 µM; in assay [2] (setting [4]), 871 nM; on JAK3 enzyme [3], 0.209 µM.

`C=CC(=O)N1CCC(Nc2cnc3[nH]cc(C(=O)NCc4cc(C5CCC5)nn4C)c3n2)CC1` [Example 173, 2-[(1-acryloylpiperidin-4-yl)amino]-N-[(3-cyclobutyl-1-methyl-1H-pyrazol-5-yl)methyl]-5H-pyrrolo[2,3-b]pyrazine-7-carboxamide]: the IC50 against JAK3 enzyme [1] came to 0.000681 µM; in assay [2] (setting [4]), 1420 nM; against JAK3 enzyme [3], 0.043 µM.

As for `C=CC(=O)N1CCC(Nc2cnc3[nH]cc(C(=O)NCc4ccc(-n5cccn5)cc4)c3n2)CC1` [Example 183, 2-[(1-acryloylpiperidin-4-yl)amino]-N-[4-(1H-pyrazol-1-yl)benzyl]-5H-pyrrolo[2,3-b]pyrazine-7-carboxamide], the results for the IC50 (against JAK3 enzyme [1]; in assay [2] (setting [4]); on JAK3 enzyme [3]) were 0.00103 µM, 1590 nM and 0.041 µM, respectively.

With `C=CC(=O)N1CCC(Oc2cnc3[nH]cc([C@@H](C)O)c3n2)CC1` (single isomer, unassigned) [Example 119], the IC50 was 0.0342 µM against JAK3 enzyme [1], 9310 nM in assay [2] (setting [4]) and 3.93 µM against JAK3 enzyme [3].

As for `C=CC(=O)N1CCC(C)(Nc2cnc3[nH]cc(C(=O)N[C@H](C)COC)c3n2)CC1` [Example 335, 2-[(1-acryloyl-4-methylpiperidin-4-yl)amino]-N-[(2R)-1-methoxypropan-2-yl]-5H-pyrrolo[2,3-b]pyrazine-7-carboxamide], the IC50 on JAK3 enzyme [1] is 0.000262 µM; in assay [2] (setting [4]), 849 nM; on JAK3 enzyme [3], 0.057 µM.

In the case of `C=CC(=O)N1CCC(Oc2cnc3[nH]cc(C(=O)NCC4(O)CCCC(F)(F)C4)c3n2)CC1` (racemic) [Example 223, Racemic-2-[(1-acryloylpiperidin-4-yl)oxy]-N-[(3,3-difluoro-1-hydroxycyclohexyl)methyl]-5H-pyrrolo[2,3-b]pyrazine-7-carboxamide], the IC50 was found to be 0.00413 µM on JAK3 enzyme [1], 3330 nM in assay [2] (setting [4]) and 0.344 µM on JAK3 enzyme [3].

For `C=CC(=O)N1CC[C@H](Oc2cnc3[nH]cc(C(=O)N[C@H](C)COC)c3n2)C1` [Example 54, 2-{[(3S)-1-acryloylpyrrolidin-3-yl]oxy}-N-[(2R)-1-methoxypropan-2-yl]-5H-pyrrolo[2,3-b]pyrazine-7-carboxamide], the IC50 against JAK3 enzyme [1] is 0.00249 µM; in assay [2] (Homo sapiens, PBMC, read-out: PBMC IL15_pSTAT5_IC50 (nM)), 1640 nM; at JAK3 enzyme [3], 0.345 µM.

As to `C=CC(=O)N1CCN(c2cnc3[nH]cc(C(=O)NC4CCC4)c3n2)CC1(C)C` [Example 289, 2-(4-acryloyl-3,3-dimethylpiperazin-1-yl)-N-cyclobutyl-5H-pyrrolo[2,3-b]pyrazine-7-carboxamide], the IC50 at JAK3 enzyme [1] turned out to be 0.00129 µM; in assay [2] (setting [4]), 454 nM; at JAK3 enzyme [3], 0.209 µM.

As to `C=CC(=O)N1C[C@H](Nc2ncnc3[nH]ccc23)CC[C@@H]1[C@H](C)O` (racemic) [Example 112], the IC50 stood at 0.00103 µM at JAK3 enzyme [1], 1010 nM in assay [2] (setting [4]) and 0.181 µM on JAK3 enzyme [3].

As for `C=CC(=O)N1C[C@@H](Nc2ncnc3[nH]ccc23)C[C@@H](C(=O)N(C)C)C1` (racemic) [Example 94], the IC50 against JAK3 enzyme [1] stood at 0.0008 µM; in assay [2] (setting [4]), 1080 nM; at JAK3 enzyme [3], 0.148 µM.

For `C=CC(=O)N1CCN(c2cnc3[nH]cc(C(=O)NC(COC)COC)c3n2)CC1(C)C` (racemic) [Example 140, Racemic-2-(4-acryloyl-3,3-dimethylpiperazin-1-yl)-N-(1,3-dimethoxypropan-2-yl)-5H-pyrrolo[2,3-b]pyrazine-7-carboxamide], the IC50 at JAK3 enzyme [1] was determined as 0.00271 µM; in assay [2] (setting [4]) it was 1710 nM; against JAK3 enzyme [3] it was 0.384 µM.

With `C=CC(=O)N1CC[C@@H](Nc2cnc3[nH]cc(C(=O)NCC4(O)CCC(F)(F)CC4)c3n2)[C@@H](OC)C1` [Example 268], the IC50 at JAK3 enzyme [1] was 0.00143 µM; in assay [2] (setting [4]), over 10000 nM; at JAK3 enzyme [3] it was 0.33 µM.

Turning to `C=CC(=O)N1CC[C@H](Nc2cnc3[nH]cc(C(=O)NCC4CC(F)(F)C4)c3n2)[C@H](OC)C1` [Example 322, 2-{[(3R,4S)-1-acryloyl-3-methoxypiperidin-4-yl]amino}-N-[(3,3-difluorocyclobutyl)methyl]-5H-pyrrolo[2,3-b]pyrazine-7-carboxamide], the IC50 was 0.000269 µM on JAK3 enzyme [1], 428 nM in assay [2] (setting [4]) and 0.047 µM on JAK3 enzyme [3].
